Where two headings read alike, the source gives them in different places.
System: test plant species
Assay: Post-emergent herbicidal activity test (greenhouse, foliar spray, visual growth reduction)
Assay type: in vivo
Conditions: post-emergence, 336 h, 140 g ai/ha
In short: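 Visual percent injury (0-100) rated 14 d after treatment, relative to nontreated and solvent-blank plants. Test plants at first or second true leaf stage received an overhead track-sprayer application at 187 L/ha. Compounds were formulated in aqueous acetone/DMSO carrier containing crop oil concentrate and X-77 surfactant.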

[1] = ALOMY: blackgrass (Alopecurus myosuroides), 14 days after application, read-out: Visual Growth Reduction (%) 14 Days After Application, ALOMY
[2] = AMARE: redroot pigweed (Amaranthus retroflexus), 14 days after application, read-out: Visual Growth Reduction (%) 14 Days After Application, AMARE
[3] = AVEFA: wild oat (Avena fatua), 14 days after application, read-out: Visual Growth Reduction (%) 14 Days After Application, AVEFA
[4] = CHEAL: lambsquarters (Chenopodium album), 14 days after application, read-out: Visual Growth Reduction (%) 14 Days After Application, CHEAL
[5] = CIRAR: canada thistle (Cirsium arvense), 14 days after application, read-out: Visual Growth Reduction (%) 14 Days After Application, CIRAR
[6] = CYPES: yellow nutsedge (Cyperus esculentus), 14 days after application, read-out: Visual Growth Reduction (%) 14 Days After Application, CYPES
[7] = DIGSA: crabgrass (Digitaria sanguinalis), 14 days after application, read-out: Visual Growth Reduction (%) 14 Days After Application, DIGSA
[8] = ECHCG: barnyardgrass (Echinochloa crus-galli), 14 days after application, read-out: Visual Growth Reduction (%) 14 Days After Application, ECHCG
[9] = IPOHE: ivy-leaf morning glory (Ipomoea hederacea), 14 days after application, read-out: Visual Growth Reduction (%) 14 Days After Application, IPOHE
[10] = KCHSC: kochia (Bassia scoparia), 14 days after application, read-out: Visual Growth Reduction (%) 14 Days After Application, KCHSC
[11] = ORYSA: rice (Oryza sativa), 14 days after application, read-out: Visual Growth Reduction (%) 14 Days After Application, ORYSA
[12] = SETFA: giant foxtail (Setaria faberi), 14 days after application, read-out: Visual Growth Reduction (%) 14 Days After Application, SETFA
[13] = SORVU: grain sorghum (Sorghum vulgare), 14 days after application, read-out: Visual Growth Reduction (%) 14 Days After Application, SORVU
[14] = STEME: common chickweed (Stellaria media), 14 days after application, read-out: Visual Growth Reduction (%) 14 Days After Application, STEME
[15] = TRZAS: wheat, spring (Triticum aestivum), 14 days after application, read-out: Visual Growth Reduction (%) 14 Days After Application, TRZAS

SMILES | pest or weed control at 140 g/ha [1] [%] | pest or weed control at 140 g/ha [2] [%] | pest or weed control at 140 g/ha [3] [%] | pest or weed control at 140 g/ha [4] [%] | pest or weed control at 140 g/ha [5] [%] | pest or weed control at 140 g/ha [6] [%] | pest or weed control at 140 g/ha [7] [%] | pest or weed control at 140 g/ha [8] [%] | pest or weed control at 140 g/ha [9] [%] | pest or weed control at 140 g/ha [10] [%] | pest or weed control at 140 g/ha [11] [%] | pest or weed control at 140 g/ha [12] [%] | pest or weed control at 140 g/ha [13] [%] | pest or weed control at 140 g/ha [14] [%] | pest or weed control at 140 g/ha [15] [%] | also measured
COC(=O)c1nc(-c2ccc(C(C)O)cc2Cl)ccc1Cl (stereo not drawn) [F1, methyl 3-chloro-6-(2-chloro-4-(1-hydroxyethyl)phenyl)picolinate] | 0 to 29 | 0 to 29 | 0 to 29 | 0 to 29 | 0 to 29 | 45 to 59 | 0 to 29 |  |  |  |  |  |  |  |  | pest or weed control at 140 g/ha (barnyardgrass (Echinochloa crus-galli), 14 Days After Application, read-out: Visual Growth Reduction (%) ECHCG): 0 to 29%; pest or weed control at 140 g/ha (common chickweed (Stellaria media), 14 Days After Application, read-out: Visual Growth Reduction (%) STEME): 0 to 29%; pest or weed control at 140 g/ha (giant foxtail (Setaria faberi), 14 Days After Application, read-out: Visual Growth Reduction (%) SETFA): 0 to 29%; pest or weed control at 140 g/ha (ivy-leaf morning glory (Ipomoea hederacea), 14 Days After Application, read-out: Visual Growth Reduction (%) IPOHE): 0 to 29%; pest or weed control at 140 g/ha (johnsongrass (Sorghum vulgare), 14 Days After Application, read-out: Visual Growth Reduction (%) SORVU): 0 to 29%; pest or weed control at 140 g/ha (kochia (Bassia scoparia), 14 Days After Application, read-out: Visual Growth Reduction (%) KCHSC): 0 to 29%; pest or weed control at 140 g/ha (rice (Oryza sativa), 14 Days After Application, read-out: Visual Growth Reduction (%) ORYSA): 0 to 29%; pest or weed control at 140 g/ha (wheat, spring (Triticum aestivum), 14 Days After Application, read-out: Visual Growth Reduction (%) TRZAS): 0 to 29%
O=C(O)c1nc(-c2cc(Br)c(C(F)(F)F)cc2Cl)c(F)cc1Cl [F181, 6-(5-Bromo-2-chloro-4-(trifluoromethyl)phenyl)-3-chloro-5-fluoropicolinic acid] | 30 to 44 | 95 to 100 | 30 to 44 | 95 to 100 | 75 to 84 | 45 to 59 | 95 to 100 | 60 to 74 | 95 to 100 | 60 to 74 | 0 to 29 | 30 to 44 | 95 to 100 | 0 to 29 | 45 to 59 | 
COC(=O)c1nc(-c2ccc(-c3ccc(F)cc3)cc2Cl)ccc1Cl [F25, methyl 3-chloro-6-(3-chloro-4′-fluoro-[1, 1′-biphenyl]-4-yl) picolinate] | 0 to 29 | 0 to 29 | 0 to 29 | 0 to 29 | 0 to 29 | 0 to 29 | 0 to 29 | 0 to 29 | 0 to 29 | 0 to 29 | 0 to 29 | 0 to 29 | 30 to 44 | 0 to 29 | 0 to 29 | 
COc1nc(C(F)(F)F)ccc1-c1nc(C(=O)O)c(Cl)cc1F [F347, 5-Chloro-3-fluoro-2′-methoxy-6′-(trifluoromethyl)-[2,3′-bipyridine]-6-carboxylic acid] |  |  |  |  |  |  |  | 85 to 94 | 95 to 100 | 85 to 94 | 30 to 44 | 85 to 94 | 85 to 94 | 0 to 29 | 75 to 84 | pest or weed control at 140 g/ha (blackgrass (Alopecurus myosuroides), 14 Days After Application, read-out: Visual Growth Reduction (%) ALOMY): 60 to 74%; pest or weed control at 140 g/ha (canada thistle (Cirsium arvense), 14 Days After Application, read-out: Visual Growth Reduction (%) CIRAR): 85 to 94%; pest or weed control at 140 g/ha (crabgrass (Digitaria sanguinalis), 14 Days After Application, read-out: Visual Growth Reduction (%) DIGSA): 95 to 100%; pest or weed control at 140 g/ha (lambsquarters (Chenopodium album), 14 Days After Application, read-out: Visual Growth Reduction (%) CHEAL): 95 to 100%; pest or weed control at 140 g/ha (redroot pigweed (Amaranthus retroflexus), 14 Days After Application, read-out: Visual Growth Reduction (%) AMARE): 95 to 100%; pest or weed control at 140 g/ha (wild oat (Avena fatua), 14 Days After Application, read-out: Visual Growth Reduction (%) AVEFA): 60 to 74%; pest or weed control at 140 g/ha (yellow nutsedge (Cyperus esculentus), 14 Days After Application, read-out: Visual Growth Reduction (%) CYPES): 0 to 29%
COC(=O)c1nc(-c2c(Cl)cc(C(F)(F)F)cc2[S+](C)[O-])ccc1Cl (stereo not drawn) [F120, methyl 3-chloro-6-(2-chloro-6-(methylsulfinyl)-4-(trifluoromethyl)phenyl)picolinate] | 0 to 29 | 45 to 59 | 0 to 29 | 30 to 44 | 60 to 74 | 0 to 29 | 0 to 29 | 0 to 29 | 30 to 44 | 60 to 74 | 0 to 29 | 0 to 29 | 0 to 29 | 0 to 29 | 0 to 29 | 

Reference: US20230017045A1, “PYRIDINE AND PYRIMIDINE CARBOXYLATE HERBICIDES AND METHODS OF USE THEREOF” (Dow AgroSciences LLC, priority 2017, published 2023)
